Results on one molecule are retold here after the NIST ThermoML archive (doi:10.1007/s10765-007-0182-2).

For this series the following is noted: 101.33 kPa, Liquid, hot wire.

Numbers after ± are expanded uncertainties.

Consider `[Pb]` [lead], for which the thermal conductivity is, setting by setting: (620.3 K) 16.2 ± 1 W/m/K; (678.1 K) 17 ± 1.1 W/m/K; (729.5 K) 17.6 ± 1.1 W/m/K.
